Reference: paper PMC7351949, “Molecular basis for the distinct functions of redox-active and FeS-transfering glutaredoxins” (Nature Communications, 2020)

Assays:
[1] = molecular target: T1, AtGrxC1 (Arabidopsis thaliana, UniProt Q8L8T2); test: HED assay, NADPH / glutathione reductase coupled; format: biochemical; conditions: read-out: HED assay / Km app (HED) / μM; 1 mM GSH, 200 µM NADPH, yeast glutathione reductase, 100 mM potassium phosphate pH 7.8; actual substrate is the mixed disulfide βME-SG formed from HED and GSH
T1 construct: gene GRXC1; His-tagged, recombinant, IMAC purified
Source text: HED assay, NADPH / glutathione reductase coupled on AtGrxC1

[2] = molecular target: T2, Grx2 (Homo sapiens, UniProt Q9NS18); test: UV/Vis spectroscopy of reconstituted holo-complex; format: binding; conditions: bridges a dimer, co-ligated by two GSH; reconstituted with GSH, cysteine, iron and IscS, pH 8.0
T2 construct: gene GLRX2; Grx2c, His-tagged, recombinant from E. coli, IMAC purified; monomeric apo form, dimeric as Fe2S2 holo-complex
T2 sequence (Q9NS18 1-165 isoform Q9NS18-2): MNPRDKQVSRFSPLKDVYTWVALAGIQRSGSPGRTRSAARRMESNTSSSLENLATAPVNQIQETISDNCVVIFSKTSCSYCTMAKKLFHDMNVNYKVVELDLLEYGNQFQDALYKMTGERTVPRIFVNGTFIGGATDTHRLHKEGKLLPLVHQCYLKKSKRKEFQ

[3] = molecular target: T3, Grx5 (Homo sapiens, UniProt Q86SX6); test: UV/Vis spectroscopy of reconstituted holo-complex; format: binding; conditions: bridges a dimer, co-ligated by two GSH; reconstituted with GSH, cysteine, iron and IscS, pH 8.0
T3 construct: gene GLRX5; transit peptide removed (forward primer encodes M-GSGAG...), pET15b, His-tagged, recombinant from E. coli, IMAC purified; dimeric as Fe2S2 holo-complex
T3 sequence (Q86SX6 33-157): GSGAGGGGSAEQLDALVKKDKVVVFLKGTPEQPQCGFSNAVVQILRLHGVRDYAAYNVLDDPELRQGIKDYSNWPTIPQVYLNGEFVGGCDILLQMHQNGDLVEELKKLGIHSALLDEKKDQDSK

T1 sequence (Q8L8T2 whole entry): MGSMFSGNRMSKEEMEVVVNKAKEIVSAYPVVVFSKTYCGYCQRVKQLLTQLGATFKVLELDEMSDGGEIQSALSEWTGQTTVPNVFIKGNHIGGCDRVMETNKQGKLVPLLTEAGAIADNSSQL

| SMILES | Km [1] | UV/Vis spectroscopy of reconstituted holo-complex [2] | UV/Vis spectroscopy of reconstituted holo-complex [3] |
| --- | --- | --- | --- |
| OCCSSCCO [HED] | 773 ± 164 µM | – | – |
| [S]1[Fe][S][Fe]1 [Fe2S2 cluster] | – | The UV/VIS spectra (Fig. 4a) demonstrate the ability of all proteins to form FeS | The UV/VIS spectra (Fig. 4a) demonstrate the ability of all proteins to form FeS |
